In brackets after ≈: the same amount, converted by molar mass. Residues, ends and D or L forms follow the SMILES beside them.
Experiments:
[1] = Inhibition of bacterial MraY; design: species or system Bacteria
Pseudomonas aeruginosa [2] = assay: Antibacterial activity against Pseudomonas aeruginosa H103 assessed as reduction in bacterial growth; format: functional
Escherichia coli = assay: Antibacterial activity against Escherichia coli assessed as inhibition of bacterial growth; format: functional
Pseudomonas aeruginosa [3] = assay: Antibacterial activity against Pseudomonas aeruginosa H103 assessed as inhibition of bacterial growth; format: functional
[4] = biological target: T1, Phospho-N-acetylmuramoyl-pentapeptide-transferase (Escherichia coli, UniProt E2QF15); assay: Inhibition of MraY in Escherichia coli
T1 sequence (E2QF15 whole entry): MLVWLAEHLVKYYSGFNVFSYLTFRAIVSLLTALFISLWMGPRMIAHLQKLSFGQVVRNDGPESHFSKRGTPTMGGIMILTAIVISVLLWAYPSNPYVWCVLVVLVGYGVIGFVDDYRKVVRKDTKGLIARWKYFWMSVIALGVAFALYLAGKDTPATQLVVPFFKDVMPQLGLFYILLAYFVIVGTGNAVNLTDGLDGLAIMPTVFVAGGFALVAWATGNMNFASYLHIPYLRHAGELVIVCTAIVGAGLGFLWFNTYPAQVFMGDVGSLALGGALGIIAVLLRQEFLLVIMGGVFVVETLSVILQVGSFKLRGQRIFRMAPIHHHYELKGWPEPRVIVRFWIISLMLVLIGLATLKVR

Staphylococcus aureus = assay: Antibacterial activity against Staphylococcus aureus ATCC 29213 assessed as bacterial growth inhibition; format: functional

IC50 [1] [µM]	MIC (Pseudomonas aeruginosa [2]) [µg/mL]	MIC (Escherichia coli) [µg/mL]	MIC (Pseudomonas aeruginosa [3]) [µg/mL]	IC50 [4] [µM]	MIC (Staphylococcus aureus) [µg/mL]	SMILES
40	31 (≈ 16.6 µM)	4 (≈ 2.14 µM)	31 (≈ 16.6 µM)	–	–	CC[C@H](C)[C@H](NC(=O)[C@H](Cc1c[nH]c2ccccc12)NC(=O)[C@@H](NC(=O)[C@@H](NC(=O)[C@H](CCCNC(=N)N)NC(=O)[C@H](Cc1c[nH]c2ccccc12)NC(=O)[C@H](Cc1c[nH]c2ccccc12)NC(=O)[C@@H](N)CCCNC(=N)N)[C@@H](C)CC)C(C)C)C(=O)N[C@@H](CCCCN)C(=O)N[C@@H](Cc1c[nH]c2ccccc12)C(=O)N[C@@H](Cc1c[nH]c2ccccc12)C(=O)N[C@@H](CCCNC(=N)N)C(=O)O (H-RWWRIVWIKWWR-OH)
–	–	–	–	0.8	–	CC[C@@H](C)[C@H](NC(=O)[C@H](CC(C)C)NC(=O)[C@H](CC(C)C)NC(=O)[C@H](CO)NC(=O)[C@@H]1CCCN1C(=O)[C@H](CC(C)C)NC(=O)[C@H](CC(C)C)NC(=O)[C@H](CC(C)C)NC(=O)[C@H](CO)NC(=O)[C@H](CC(C)C)NC(=O)[C@H](CC(C)C)NC(=O)[C@H](CC(C)C)NC(=O)[C@H](CC(C)C)NC(=O)[C@H](Cc1ccccc1)NC(=O)[C@H](C)NC(=O)[C@H](CC(C)C)NC(=O)[C@@H](NC(=O)[C@H](CC(=O)O)NC(=O)[C@H](Cc1c[nH]c2ccccc12)NC(=O)[C@H](CC(C)C)NC(=O)[C@@H](NC(=O)[C@H](Cc1c[nH]c2ccccc12)NC(=O)[C@H](CCCNC(=N)N)NC(=O)[C@@H](NC(=O)[C@@H](N)CCSC)C(C)C)[C@@H](C)O)[C@@H](C)O)C(=O)N[C@@H](CCSC)C(=O)N[C@@H](Cc1ccccc1)C(=O)N[C@H](C(=O)N1CCC[C@H]1C(=O)N[C@@H](CO)C(=O)N[C@H](C(=O)N[C@@H](Cc1ccccc1)C(=O)N[C@@H](CCCCN)C(=O)N[C@@H](CCCNC(=N)N)C(=O)N1CCC[C@H]1C(=O)N[C@H](C(=O)N[C@@H](CO)C(=O)O)C(C)C)[C@@H](C)O)[C@@H](C)CC
590	–	–	–	–	30 (≈ 41.9 µM)	CC(C)C[C@H](NC(=O)CNC(=O)[C@H](Cc1c[nH]c2ccccc12)NC(=O)[C@@H](N)CCCNC(=N)N)C(=O)N[C@@H](Cc1c[nH]c2ccccc12)C(=O)O (H-RWGLW-OH)

From ChEMBL document CHEMBL5252520, “Inhibition of phospho-MurNAc-pentapeptide translocase (MraY) by nucleoside natural product antibiotics, bacteriophage ϕX174 lysis protein E, and cationic antibacterial peptides” (Bioorg Med Chem, 2016)
